Laboratory results taken from US20150010928A1, “MEANS AND METHODS FOR ASSESSING AN ENDOCRINE DISEASE OR DISORDER” (priority 2012, published 2015).
Marks after values point to notes of the source that are not given here.

Test system: female rats
Test: Plasma metabolite profiling (GC-MS, LC-MS, SPE-LC-MS) in female rats dosed once daily over 28 days (OECD 407)
Format: in vivo, rat
Settings: female rats, plasma, low dose
Experimental: Each dose group in the studies consisted of five rats per sex. Additional groups of each 5 male and female animals served as controls. […] All animals of the animal population were kept under the same constant temperature (20-24±3° C.) and the same constant humidity (30-70%). The animals of the animal population were fed ad libitum. The food to be used was essentially free of chemical or microbial contaminants. Drinking water was also offered ad libitum. Accordingly, the water was free of chemical and microbial contaminants as laid down in the European Drinking Water Directive 98/83/EG. The illumination period was 12 hours light followed by 12 hours darkness (12 hours light, from 6:00 to 18:00, and 12 hours darkness, from 18:00 to 6:00). […] The test substances (compounds) in the Tables 1 to 17 below were dosed and administered as described in the Table 18.
In the morning of day 7, 14, and 28, blood was taken from the retroorbital venous plexus from fasted anaesthetized animals. From each animal, 1 ml of blood was collected with EDTA as anticoagulant. The samples were centrifuged for generation of plasma. All plasma samples were covered with a N2 atmosphere and then stored at −80° C. until analysis.
For mass spectrometry-based metabolite profiling analyses plasma samples were extracted and a polar and a non-polar (lipid) fraction was obtained. For GC-MS analysis, the non-polar fraction was treated with methanol under acidic conditions to yield the fatty acid methyl esters. Both fractions were further derivatised with O-methyl-hydroxyamine hydrochloride and pyridine to convert Oxogroups to O-methyloximes and subsequently with a silylating agent before analysis. In LC-MS analysis, both fractions were reconstituted in appropriate solvent mixtures. HPLC was performed by gradient elution on reversed phase separation columns. Mass spectrometric detection which allows target and high sensitivity MRM (Multiple Reaction Monitoring) profiling in parallel to a full screen analysis was applied as described in WO2003073464.
Steroids and their metabolites were measured by online SPE-LC-MS (Solid phase extraction-LC-MS).
Following comprehensive analytical validation steps, the data for each analyte were normalized against data from pool samples. These samples were run in parallel through the whole process to account for process variability. The significance of treatment group values specific for sex, treatmentduration and metabolite was determined by comparing means of the treated groups to the means of the respective untreated control groups using WELCH-test and quantified with treatment ratios versus control and p-values.
The identification of the most important biomarkers per toxicity pattern was done by a ranking of the analytes in the tables below. Therefore the metabolic changes in reference treatments of a given pattern (shown in the table) were compared with changes of the same metabolite in other unrelated treatments. […] The maximum absolute value of the respective TVALUE was taken to indicate the most important metabolite for the pattern.

- 3-O-Methylsphingosine (d18:1), ratio versus control (day 7): 0.25 *
- 5-O-Methylsphingosine (d18:1), ratio versus control (day 7): 0.27 *
- 16-Methylheptadecanoic acid, ratio versus control (day 7): 0.64 *
- 17-Methyloctadecanoic acid, ratio versus control (day 7): 0.7 *
- Arachidonic acid (C20:cis[5,8,11,14]4), ratio versus control (day 7): 0.59 *
- Behenic acid (C22:0), ratio versus control (day 7): 0.45 *
- Cholesterol, ratio versus control (day 7): 0.55 *
- Choline plasmalogen No 03, ratio versus control (day 7): 0.74 *
- Docosahexaenoic acid (C22:cis[4,7,10,13,16,19]6), ratio versus control (day 7): 0.52 *
- Galactose, lipid fraction, ratio versus control (day 7): 0.51 *
- Lignoceric acid (C24:0), ratio versus control (day 7): 0.45 *
- Lysophosphatidylcholine (C17:0), ratio versus control (day 7): 0.8 *
- Malate, ratio versus control (day 7): 0.98 *
- Nervonic acid (C24:cis[15]1), ratio versus control (day 7): 0.45 *
- Sphingomyelin (d18:2, C16:0), ratio versus control (day 7): 0.55 *
- Stearic acid (C18:0), ratio versus control (day 7): 0.63 *
- Tricosanoic acid (C23:0), ratio versus control (day 7): 0.32 *
- Uric acid, ratio versus control (day 7): 0.73 *
- alpha-Tocopherol, ratio versus control (day 7): 0.5 *
- erythro-Sphingosine (d18:1), ratio versus control (day 7): 0.29 *
- myo-Inositol, lipid fraction, ratio versus control (day 7): 0.62 *
- myo-Inositol-2-phosphate, lipid fraction, ratio versus control (day 7): 0.48 *
- threo-Sphingosine (d18:1), ratio versus control (day 7): 0.33 *
- 3-O-Methylsphingosine (d18:1), ratio versus control (day 14): 0.55 *
- 5-O-Methylsphingosine (d18:1), ratio versus control (day 14): 0.58 *
- 16-Methylheptadecanoic acid, ratio versus control (day 14): 0.72 *
- 17-Methyloctadecanoic acid, ratio versus control (day 14): 0.73 *
- Arachidonic acid (C20:cis[5,8,11,14]4), ratio versus control (day 14): 0.66 *
- Behenic acid (C22:0), ratio versus control (day 14): 0.52 *
- Cholesterol, ratio versus control (day 14): 0.66 *
- Choline plasmalogen No 03, ratio versus control (day 14): 0.8 *
- Docosahexaenoic acid (C22:cis[4,7,10,13,16,19]6), ratio versus control (day 14): 0.71 *
- Galactose, lipid fraction, ratio versus control (day 14): 0.66 *
- Lignoceric acid (C24:0), ratio versus control (day 14): 0.53 *
- Lysophosphatidylcholine (C17:0), ratio versus control (day 14): 0.9 *
- Malate, ratio versus control (day 14): 0.75 *
- Nervonic acid (C24:cis[15]1), ratio versus control (day 14): 0.7 *
- Sphingomyelin (d18:2, C16:0), ratio versus control (day 14): 0.74 *
- Stearic acid (C18:0), ratio versus control (day 14): 0.83 *
- Tricosanoic acid (C23:0), ratio versus control (day 14): 0.65 *
- Uric acid, ratio versus control (day 14): 0.72 *
- alpha-Tocopherol, ratio versus control (day 14): 0.65 *
- erythro-Sphingosine (d18:1), ratio versus control (day 14): 0.61 *
- myo-Inositol, lipid fraction, ratio versus control (day 14): 0.76 *
- myo-Inositol-2-phosphate, lipid fraction, ratio versus control (day 14): 0.66^
- threo-Sphingosine (d18:1), ratio versus control (day 14): 0.65 *
- 3-O-Methylsphingosine (d18:1), ratio versus control (day 28): 0.44 *
- 5-O-Methylsphingosine (d18:1), ratio versus control (day 28): 0.47 *
- 16-Methylheptadecanoic acid, ratio versus control (day 28): 0.69 *
- 17-Methyloctadecanoic acid, ratio versus control (day 28): 0.86 *
- Arachidonic acid (C20:cis[5,8,11,14]4), ratio versus control (day 28): 0.46 *
- Behenic acid (C22:0), ratio versus control (day 28): 0.57 *
- Cholesterol, ratio versus control (day 28): 0.43 *
- Choline plasmalogen No 03, ratio versus control (day 28): 0.57 *
- Docosahexaenoic acid (C22:cis[4,7,10,13,16,19]6), ratio versus control (day 28): 0.43 *
- Galactose, lipid fraction, ratio versus control (day 28): 0.62 *
- Lignoceric acid (C24:0), ratio versus control (day 28): 0.44 *
- Lysophosphatidylcholine (C17:0), ratio versus control (day 28): 0.81 *
- Malate, ratio versus control (day 28): 0.66 *
- Nervonic acid (C24:cis[15]1), ratio versus control (day 28): 0.43 *
- Sphingomyelin (d18:2, C16:0), ratio versus control (day 28): 0.62 *
- Stearic acid (C18:0), ratio versus control (day 28): 0.66 *
- Tricosanoic acid (C23:0), ratio versus control (day 28): 0.42 *
- Uric acid, ratio versus control (day 28): 0.57 *
- alpha-Tocopherol, ratio versus control (day 28): 0.46 *
- erythro-Sphingosine (d18:1), ratio versus control (day 28): 0.51 *
- myo-Inositol, lipid fraction, ratio versus control (day 28): 0.75 *
- myo-Inositol-2-phosphate, lipid fraction, ratio versus control (day 28): 0.54 *
- threo-Sphingosine (d18:1), ratio versus control (day 28): 0.57 *
Compound: O=c1c(-c2ccc(O)cc2)coc2cc(O)cc(O)c12 [Genistein]
